Data as given in patent publication US20240368157A1, “FORMS AND COMPOSITIONS OF A JAK2 INHIBITOR” (Ajax Therapeutics, Inc., priority 2023, published 2024).
In brackets after ≈: the same amount, converted by molar mass. Like-named read-outs stand apart in the source and are kept apart here. Values belong to the compound of their own block, whether it stands above or below them.

Columns and labels:
[1] = Approximate solubility estimates (solvent incremental addition, visual observation); assay type: physicochemical; settings: organic solvent or mixture, thermodynamic from solid, read-out: Solubility
Method: Approximate solubility estimates of Compound 1 Lot I were ascertained using the solvent incremental addition method and visual observation (Table 2.1). […] Approximate solubilities were calculated based on the total solvent used to achieve a solution, as judged by visual observation. Actual solubilities may be greater because of the volume of solvent portions utilized or a slow rate of dissolution. […] If dissolution occurred at the first aliquot, the value was reported as “>”

[2] = Dynamic vapor sorption (DVS); assay type: physicochemical; settings: for Hysteresis: in % (unit assumed); for weight gain during sorption: DVS
Method: Moisture sorption/desorption data were collected on a Surface Measurement System DVS Intrinsic instrument. Samples were not dried prior to analysis. Sorption and desorption data were collected over a range from 5% to 95% RH to 5% RH at 10% RH increments under a nitrogen purge. The equilibrium criterion used for analysis was less than 0.0100% weight change in 5 minutes with a maximum equilibration time of 3 hours. Data were not corrected for the initial moisture content of the samples.

solubility ([1]; 1-BuOH:H2O (90:10), 80 °C, 1-BuOH:H2O (90:10), aw = 0.82, 80° C.): 4000 µg/mL (≈ 7.58 mM)
solubility ([1]; 1-BuOH:H2O (96:4), 85 °C, 1-BuOH:H2O (96:4), aw = 0.49, 85° C.): 1000 µg/mL (≈ 1.9 mM)
SMILES: CN(C)C(=O)Nc1cc(Oc2cnc3nc(Nc4cc(C(F)(F)F)cn(C)c4=O)n(C)c3c2C#N)ccn1 [Compound 1 Lot II]

Desorp Mass Change (%) ([2]; DVS cycle 1, target RH 5%): 0.028%
Sorp Mass Change (%) ([2]; DVS cycle 1, target RH 5%): 0.005%
Desorp Mass Change (%) ([2]; DVS cycle 1, target RH 15%): 1.354%
Sorp Mass Change (%) ([2]; DVS cycle 1, target RH 15%): 1.314%
Hysteresis ([2]; DVS cycle 1, target RH 15%): 0.040
Desorp Mass Change (%) ([2]; DVS cycle 1, target RH 25%): 1.757%
Sorp Mass Change (%) ([2]; DVS cycle 1, target RH 25%): 1.741%
Hysteresis ([2]; DVS cycle 1, target RH 25%): 0.016
Desorp Mass Change (%) ([2]; DVS cycle 1, target RH 35%): 1.927%
Sorp Mass Change (%) ([2]; DVS cycle 1, target RH 35%): 1.912%
Hysteresis ([2]; DVS cycle 1, target RH 35%): 0.015
Desorp Mass Change (%) ([2]; DVS cycle 1, target RH 45%): 2.061%
Sorp Mass Change (%) ([2]; DVS cycle 1, target RH 45%): 2.017%
Hysteresis ([2]; DVS cycle 1, target RH 45%): 0.044
Desorp Mass Change (%) ([2]; DVS cycle 1, target RH 55%): 2.161%
Sorp Mass Change (%) ([2]; DVS cycle 1, target RH 55%): 2.100%
Hysteresis ([2]; DVS cycle 1, target RH 55%): 0.061
Desorp Mass Change (%) ([2]; DVS cycle 1, target RH 65%): 2.240%
Sorp Mass Change (%) ([2]; DVS cycle 1, target RH 65%): 2.178%
Hysteresis ([2]; DVS cycle 1, target RH 65%): 0.061
Desorp Mass Change (%) ([2]; DVS cycle 1, target RH 75%): 2.323%
Sorp Mass Change (%) ([2]; DVS cycle 1, target RH 75%): 2.262%
Hysteresis ([2]; DVS cycle 1, target RH 75%): 0.061
Desorp Mass Change (%) ([2]; DVS cycle 1, target RH 85%): 2.437%
Sorp Mass Change (%) ([2]; DVS cycle 1, target RH 85%): 2.375%
Hysteresis ([2]; DVS cycle 1, target RH 85%): 0.062
Desorp Mass Change (%) ([2]; DVS cycle 1, target RH 95%): 2.620%
Sorp Mass Change (%) ([2]; DVS cycle 1, target RH 95%): 2.620%
weight gain during sorption ([2]; 5-25% RH): 1.74%
weight gain during sorption ([2]; 5-95% RH): 2.6%
SMILES: CN(C)C(=O)Nc1cc(Oc2cnc3nc(Nc4cc(C(F)(F)F)cn(C)c4=O)n(C)c3c2C#N)ccn1 [Form C]
XRPD pattern of the post-DVS sample ([2]; after DVS experiment): consistent with Form C with slight peak shifting
